Data set [1] relates to SARS-CoV-2. In words: microbe, parasite or virus in culture. It counts as cell-based. The settings on record: Severe acute respiratory syndrome coronavirus 2, A549, 48 h; read-out: IC50 for inhibition of SARS CoV-2 mediated cell killing.
Data set [2] can be described thus: in vitro. It counts as cell-based. The settings on record: African green monkey. The protocol:
(§1) Compound cytotoxicity (CC50) is assessed in a BSL-2 counter screen as follows: Host cells in media are added in 25 μl aliquots (4000 cells/well) to each well of assay ready plates prepared with test compounds as above. […] DMSO is maintained at a constant concentration for all wells (0.3%) as dictated by the dilution factor of stock test compound concentrations. After incubating plates at 37° C./5% CO2 and 90% humidity for 72 hours, 30 μl Cell Titer-Glo (Promega) is added to each well. Luminescence is read using a BMG PHERAstar plate reader following incubation at room temperature for 10 minutes to measure cell viability.

In data set [3] the test system is Vero E6 cells. The experiment in a line: in vitro. It counts as cell-based. The settings on record: African green monkey, 72 h. On the procedure:
as §1

Data set [4] concerns SARS CoV-2. The experiment in a line: SARS CoV-2 CPE assay for antiviral activity in Vero E6 host cells. Type of data set: cell-based, coronavirus USA_WA1/2020 SARS CoV-2. To be noted: read-out: IC50 for inhibition of SARS CoV-2 mediated cell killing.
[5] abbreviates: Vero C1008, Vero E6 cells, CPE assay, 72 hours, 10-point dose response, high concentration 15 μM.

pIC50: −log10 of the molar value. Like-named read-outs stand apart in the source and are kept apart here.

`C[C@@H]1COCCN1c1cc(-c2ccccc2C(F)(F)F)[nH]c(=O)c1` [Compound 1]: the pIC50 in data set [1] was 5.69; in data set [4] (setting [5]), 5.41. For the same compound, the CC50 at 72 h in data set [2] was over 30 µM. The CC50 in data set [3] was over 30 µM.
Regarding `C[C@@H]1COCCN1c1cc(-c2ccccc2Cl)[nH]c(=O)c1` [Compound 2], the figures for the pIC50 in data set [1] and in data set [4] (setting [5]) were 6.08 and 5.56, respectively. The compound further gave a CC50 at 72 h in data set [2] of over 30 µM. In addition, in data set [3], the CC50 is over 30 µM.
In the case of `Cc1cscc1-c1cc(N2CCOC[C@H]2C)cc(=O)[nH]1` [Compound 3], the pIC50 in data set [1] is 5.19; in data set [4] (Vero C1008, 72 h), under 5.00. This compound came in with a CC50 at 72 h in data set [2] of over 10 µM. Also, the CC50 in data set [3] is over 10 µM.
